Data reported in US20260265238A1, “COMPOUNDS AND PHARMACEUTICAL COMPOSITIONS THAT DEGRADE SWI/SNF-RELATED MATRIX-ASSOCIATED ACTIN-DEPENDENT REGULATOR OF CHROMATIN SUBFAMILY A” (Plexium, Inc., priority 2023, published 2026).

Legend:
[1] = target: T1, SMARCA4-HiBiT HeLa cells (protein which is expressed from the SMARCA4 gene) (Homo sapiens, UniProt P51532); experiment: SMARCA4 degradation assay (HiBiT-fusion HeLa cell line, 24 h, luminescence); format: cell-based
T1 construct: protein which is expressed from the SMARCA2 and SMARCA4 genes; host or cells: HeLa (SMARCA4-HiBiT engineered line)
Description: (§1) SMARCA2 and SMARCA4 Degradation Assay
(§2) Degradation of protein which is expressed from the SMARCA2 and SMARCA4 genes was monitored using engineered HiBiT-fusion HeLa cell lines from Promega. In brief, 384-well white opaque plates (Greiner) were seeded with SMARCA2-HiBiT or SMARCA4-HiBiT HeLa cells at 8,000 cells/well and incubated overnight at 37° C. to allow cell attachment. After overnight incubation, test compounds were added in a 10-point dilution series (typically 10 μM to 300 pM) using a TECAN D300e Digital Dispenser, and plates were subsequently incubated for 24 hours at 37° C. 24-hours post-treatment, protein levels were quantified with the addition of HiBiT lytic buffer, LgBiT protein, and HiBiT substrate, according to manufacturer's specifications. Plates were incubated on an orbital plate shaker for 10 minutes at room temperature. Resulting luminescent values were read out using a ClarioStar plate reader and used to construct dose-response curves and calculation of degradation DC50s (GraphPad Prism).
(§3) Activity of the tested compounds is provided in Table 4 below as follows: A=DC50<0.050 μM; B=0.05 μM<DC50<0.50 μM; C=<0.5 μM<DC50<5.0 μM; D=DC50>5.0 μM. For SMARCA2 and SMARCA4 degradation activity @1 μM, +++=>70%; ++=30-70%; +=<30%.

[2] = target: T2, SMARCA2-HiBiT HeLa cells (protein which is expressed from the SMARCA2 gene) (Homo sapiens, UniProt P51531); experiment: SMARCA2 degradation assay (HiBiT-fusion HeLa cell line, 24 h, luminescence); format: cell-based
T2 construct: protein which is expressed from the SMARCA2 and SMARCA4 genes; host or cells: HeLa (SMARCA2-HiBiT engineered line)
Description: as §1, §2, §3

T1 sequence (P51532 whole entry, the tested form may be a part): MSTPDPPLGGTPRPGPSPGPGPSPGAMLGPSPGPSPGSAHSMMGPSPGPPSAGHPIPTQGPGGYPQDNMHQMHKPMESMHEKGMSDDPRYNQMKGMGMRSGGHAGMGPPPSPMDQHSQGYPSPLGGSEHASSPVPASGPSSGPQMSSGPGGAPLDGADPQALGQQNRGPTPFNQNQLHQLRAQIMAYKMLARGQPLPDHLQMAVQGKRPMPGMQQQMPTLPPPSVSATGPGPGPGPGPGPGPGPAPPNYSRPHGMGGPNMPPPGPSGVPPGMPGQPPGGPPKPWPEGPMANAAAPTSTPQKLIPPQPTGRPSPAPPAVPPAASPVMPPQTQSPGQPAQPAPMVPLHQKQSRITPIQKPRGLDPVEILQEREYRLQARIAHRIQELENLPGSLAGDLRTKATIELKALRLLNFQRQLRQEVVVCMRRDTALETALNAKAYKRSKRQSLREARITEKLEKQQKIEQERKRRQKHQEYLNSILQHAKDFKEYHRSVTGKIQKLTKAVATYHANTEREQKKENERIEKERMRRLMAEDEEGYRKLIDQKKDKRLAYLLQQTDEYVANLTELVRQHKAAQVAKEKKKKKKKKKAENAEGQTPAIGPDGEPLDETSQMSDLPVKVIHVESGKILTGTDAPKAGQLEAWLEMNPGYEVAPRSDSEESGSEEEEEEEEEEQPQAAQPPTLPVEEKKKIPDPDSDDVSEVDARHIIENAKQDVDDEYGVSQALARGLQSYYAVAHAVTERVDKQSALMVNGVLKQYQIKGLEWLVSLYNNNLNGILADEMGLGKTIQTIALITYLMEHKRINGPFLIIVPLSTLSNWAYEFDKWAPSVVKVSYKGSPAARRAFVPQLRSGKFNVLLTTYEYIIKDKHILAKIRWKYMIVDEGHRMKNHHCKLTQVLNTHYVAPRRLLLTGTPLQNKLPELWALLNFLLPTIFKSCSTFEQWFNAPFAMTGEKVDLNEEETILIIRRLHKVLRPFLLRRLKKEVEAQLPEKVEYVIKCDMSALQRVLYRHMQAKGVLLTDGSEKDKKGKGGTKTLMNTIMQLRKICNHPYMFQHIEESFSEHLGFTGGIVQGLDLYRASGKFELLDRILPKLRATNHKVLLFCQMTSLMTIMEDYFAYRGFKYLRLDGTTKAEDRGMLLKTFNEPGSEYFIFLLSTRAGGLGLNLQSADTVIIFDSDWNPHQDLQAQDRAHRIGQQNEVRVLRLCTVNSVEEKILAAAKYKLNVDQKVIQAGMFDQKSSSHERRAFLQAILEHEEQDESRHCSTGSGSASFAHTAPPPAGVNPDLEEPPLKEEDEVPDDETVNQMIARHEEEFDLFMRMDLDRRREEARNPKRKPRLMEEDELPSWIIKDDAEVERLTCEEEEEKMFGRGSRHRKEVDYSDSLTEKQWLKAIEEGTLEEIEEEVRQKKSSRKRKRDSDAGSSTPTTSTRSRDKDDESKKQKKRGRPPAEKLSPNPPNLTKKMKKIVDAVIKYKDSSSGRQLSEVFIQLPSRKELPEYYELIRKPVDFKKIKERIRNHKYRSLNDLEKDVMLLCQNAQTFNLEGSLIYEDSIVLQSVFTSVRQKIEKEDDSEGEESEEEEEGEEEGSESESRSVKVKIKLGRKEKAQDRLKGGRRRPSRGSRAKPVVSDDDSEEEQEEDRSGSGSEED
T2 sequence (P51531 whole entry, the tested form may be a part): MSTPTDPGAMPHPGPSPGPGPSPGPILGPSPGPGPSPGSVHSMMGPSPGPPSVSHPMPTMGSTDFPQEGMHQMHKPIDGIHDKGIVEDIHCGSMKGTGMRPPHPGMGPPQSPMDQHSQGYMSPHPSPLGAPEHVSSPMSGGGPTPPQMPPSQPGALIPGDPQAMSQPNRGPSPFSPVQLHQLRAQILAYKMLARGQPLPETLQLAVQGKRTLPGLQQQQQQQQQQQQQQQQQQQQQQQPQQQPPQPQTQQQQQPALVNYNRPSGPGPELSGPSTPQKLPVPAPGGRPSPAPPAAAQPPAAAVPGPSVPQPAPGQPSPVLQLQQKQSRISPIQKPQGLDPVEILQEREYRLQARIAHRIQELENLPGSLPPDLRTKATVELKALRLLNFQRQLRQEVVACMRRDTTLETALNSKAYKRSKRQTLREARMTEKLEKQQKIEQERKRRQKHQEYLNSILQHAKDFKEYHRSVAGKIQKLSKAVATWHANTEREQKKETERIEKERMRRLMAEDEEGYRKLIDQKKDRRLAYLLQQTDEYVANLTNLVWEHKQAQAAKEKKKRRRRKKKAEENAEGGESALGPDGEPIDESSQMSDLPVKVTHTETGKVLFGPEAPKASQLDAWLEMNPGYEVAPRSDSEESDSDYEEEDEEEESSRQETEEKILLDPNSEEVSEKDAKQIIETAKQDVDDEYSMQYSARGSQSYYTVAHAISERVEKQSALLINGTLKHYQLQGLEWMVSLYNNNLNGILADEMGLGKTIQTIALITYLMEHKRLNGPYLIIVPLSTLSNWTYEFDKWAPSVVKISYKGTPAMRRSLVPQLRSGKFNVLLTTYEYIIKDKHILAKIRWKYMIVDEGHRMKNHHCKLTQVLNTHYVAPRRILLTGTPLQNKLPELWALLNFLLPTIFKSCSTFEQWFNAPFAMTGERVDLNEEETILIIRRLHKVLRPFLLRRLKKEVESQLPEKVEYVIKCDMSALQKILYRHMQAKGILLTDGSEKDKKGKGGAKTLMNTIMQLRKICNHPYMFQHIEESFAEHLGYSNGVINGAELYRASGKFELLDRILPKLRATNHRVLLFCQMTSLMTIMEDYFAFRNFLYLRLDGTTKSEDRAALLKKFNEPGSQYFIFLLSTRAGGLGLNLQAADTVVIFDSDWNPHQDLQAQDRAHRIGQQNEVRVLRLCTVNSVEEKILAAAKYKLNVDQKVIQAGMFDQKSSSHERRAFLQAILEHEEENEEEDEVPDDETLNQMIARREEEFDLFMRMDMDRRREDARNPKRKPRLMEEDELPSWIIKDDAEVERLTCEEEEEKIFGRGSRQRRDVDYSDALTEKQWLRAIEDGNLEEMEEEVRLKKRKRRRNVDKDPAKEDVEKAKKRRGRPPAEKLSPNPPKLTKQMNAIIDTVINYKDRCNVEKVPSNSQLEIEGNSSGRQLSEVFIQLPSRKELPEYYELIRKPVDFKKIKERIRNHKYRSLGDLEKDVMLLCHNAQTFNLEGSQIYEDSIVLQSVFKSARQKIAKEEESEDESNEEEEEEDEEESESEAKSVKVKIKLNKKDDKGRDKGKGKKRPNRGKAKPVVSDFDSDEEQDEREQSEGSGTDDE

Row | DC50 [1] [nM] | inhibition at 1 µM [1] [%] | DC50 [2] [nM] | SMARCA2 % Degradation @ 1 μM [2] | Compound
1 | 500 to 5000 | < 30 | 500 to 5000 | ++ (++=30-70%) | C[C@@H]1CCN(c2cc(-c3ccccc3O)nnc2N)CCN1c1ccnc(C#CCNC(=O)c2cccnc2)n1 [Compound P-240, N-[3-(4-{ (R)-4-[3-amino-6-(o-hydroxyphenyl)-4-pyridazinyl]-7-methyl-1,4-diazepan-1-yl}-2-pyrimidinyl)-2-propynyl]nicotinamide]
2 | < 50 | 30 to 70 | < 50 | ++ (++=30-70%) | Nc1nnc(-c2ccccc2O)cc1N1C[C@H]2CN(c3ccnc(C#CCN4CC(F)(F)C4)n3)C[C@H]2C1 [Compound P-180]
3 | 50 to 500 | 30 to 70 | 50 to 500 | ++ (++=30-70%) | Cn1ccc(NCC#Cc2nccc(N3CCCN(c4cc(-c5ccccc5O)nnc4N)CC3)n2)n1 [Compound P-21, 2-(6-amino-5-(4-(2-(3-((1-methyl-1H-pyrazol-3-yl)amino)prop-1-yn-1-yl)pyrimidin-4-yl)-1,4-diazepan-1-yl)pyridazin-3-yl)phenol]
4 | 50 to 500 | 30 to 70 | 50 to 500 | +++ (+++=>70%) | Nc1nnc(-c2ccccc2O)cc1N1CCCN(c2ccnc(C#CCn3ccc(-c4ccccn4)n3)n2)CC1 [Compound P-138, 2-(6-amino-5-(4-(2-(3-(3-(pyridin-2-yl)-1H-pyrazol-1-yl)prop-1-yn-1-yl)pyrimidin-4-yl)-1,4-diazepan-1-yl)pyridazin-3-yl)phenol]
5 | 50 to 500 | 30 to 70 | 50 to 500 | ++ (++=30-70%) | COC[C@H](C)NCC#Cc1nccc(N2CCCN(c3cc(-c4ccccc4O)nnc3N)CC2)n1 [Compound P-276, 0-{5-[4-(2-{3-[(S)-2-methoxy-1-methylethylamino]-1-propynyl}-4-pyrimidinyl)-1,4-diazepan-1-yl]-6-amino-3-pyridazinyl}phenol]
6 | 50 to 500 | 30 to 70 | 50 to 500 | +++ (+++=>70%) | C[C@@H]1CCN(c2cc(-c3ccccc3O)nnc2N)CCN1c1ccnc(C#C[C@H](O)C2CC2)n1 [Compound P-266, 0-{5-[(R)-4-{2-[(R)-3-cyclopropyl-3-hydroxy-1-propynyl]-4-pyrimidinyl}-5-methyl-1,4-diazepan-1-yl]-6-amino-3-pyridaziny1} phenol]
7 | 50 to 500 | > 70 | 50 to 500 | +++ (+++=>70%) | C/C=C/c1nccc(N2CCN(c3cc(-c4ccccc4O)nnc3N)CC[C@H]2C)n1 [Compound P-169, o-(5-{(R)-5-methyl-4-[2-(1-propenyl)-4-pyrimidinyl]-1,4-diazepan-1-yl}-6-amino-3-pyridazinyl)phenol]
8 | 50 to 500 | 30 to 70 | 50 to 500 | ++ (++=30-70%) | Nc1nnc(-c2ccccc2O)cc1N1CCC2(CCN(c3ccnc(C#CCn4ccnc4)n3)CC2)C1 [Compound P-253, o-[6-amino-5-(8-{2-[3-(1-imidazolyl)-1-propynyl]-4-pyrimidinyl}-2,8-diaza-2-spiro [4.5]decyl)-3-pyridazinyl]phenol]
9 | 50 to 500 | 30 to 70 | 50 to 500 | +++ (+++=>70%) | Nc1nnc(-c2ccccc2O)cc1N1CCCN(c2ccnc(C#CCN[C@H]3CCOC3)n2)CC1 [Compound P-275, 0-{5-[4-(2-{3-[(S)-tetrahydro-3-furylamino]-1-propynyl}-4-pyrimidinyl)-1,4-diazepan-1-yl]-6-amino-3-pyridaziny1}phenol]
10 | < 50 | 30 to 70 | < 50 | ++ (++=30-70%) | CC(C)(C)OC(=O)NCC#Cc1nccc(N2CC3=C(C2)CN(c2cc(-c4ccccc4O)nnc2N)C3)n1 [Compound P-259, 3-(4-{7-[3-amino-6-(o-hydroxyphenyl)-4-pyridaziny1]-3,7-diazabicyclo[3.3.0]oct-1(5)-en-3-y1}-2-pyrimidinyl)-2-propynylamino-tert-butylformylate]
11 | 500 to 5000 | < 30 | 500 to 5000 | + (+=<30%) | C[C@@H]1CN(c2ccnc(C#CCNC(=O)c3cc4ncccn4n3)n2)C[C@@H](C)N1c1cc(-c2ccccc2O)nnc1N [Compound P-82, N-(3-(4-((3R,5R)-4-(3-amino-6-(2-hydroxyphenyl)pyridazin-4-yl)-3,5-dimethylpiperazin-1-yl)pyrimidin-2-yl)prop-2-yn-1-yl)pyrazolo[1,5-a]pyrimidine-2-carboxamide]
12 | < 50 | 30 to 70 | < 50 | ++ (++=30-70%) | C[C@@H]1CCN(c2cc(-c3ccccc3O)nnc2N)CCN1c1ccnc(C#CCN2[C@H](C)C[C@@H]2C)n1 [Compound P-223, o-{5-[(R)-4-(2-{3-[(2R,4S)-2,4-dimethyl-1-azetidinyl]-1-propynyl}-4-pyrimidinyl)-5-methyl-1,4-diazepan-1-y1]-6-amino-3-pyridazinyl}phenol]
13 | 50 to 500 | < 30 | 50 to 500 | ++ (++=30-70%) | C[C@@H]1CCC(=O)N1CC#Cc1ncc(F)c(N2CCN(c3cc(-c4ccccc4O)nnc3N)CC[C@H]2C)n1 [Compound P-175, (R)-1-[3-(4-{(R)-4-[3-amino-6-(o-hydroxyphenyl)-4-pyridazinyl]-7-methyl-1,4-diazepan-1-yl}-5-fluoro-2-pyrimidinyl)-2-propynyl]-5-methyl-2-pyrrolidinone]
14 | < 50 | 30 to 70 | < 50 | +++ (+++=>70%) | CCN(CC)CC#Cc1nccc(N2CCN(c3cc(-c4ccccc4O)nnc3N)CC[C@H]2C)n1 [Compound P-202]
15 | < 50 | > 70 | 50 to 500 | +++ (+++=>70%) | CC(C)(C)OC(=O)N1Cc2cn(CC#Cc3nccc(N4CCCN(c5cc(-c6ccccc6O)nnc5N)CC4)n3)nc2C1 [Compound P-105, tert-butyl 2-(3-(4-(4-(3-amino-6-(2-hydroxyphenyl)pyridazin-4-yl)-1,4-diazepan-1-yl)pyrimidin-2-yl)prop-2-yn-1-yl)-2,6-dihydropyrrolo[3,4-c]pyrazole-5(4H)-carboxylate]
16 | < 50 | < 30 | < 50 | ++ (++=30-70%) | C[C@@H]1CCN(c2cc(-c3ccccc3O)nnc2N)CCN1c1ccnc(/C=C/CN2CCOCC2)n1 [Compound P-167, o-(5-{(R)-5-methyl-4-[2-(3-morpholino-1-propenyl)-4-pyrimidinyl]-1,4-diazepan-1-y1}-6-amino-3-pyridazinyl)phenol]
17 | < 50 | 30 to 70 | < 50 | ++ (++=30-70%) | C[C@@H]1CCN(c2cc(-c3ccccc3O)nnc2N)CCN1c1ccnc(C#CCN2CCC(C)(F)C2)n1 (stereo partly drawn) [Compound P-210, o-{5-[(R)-4-{2-[3-(3-fluoro-3-methyl-1-pyrrolidinyl)-1-propynyl]-4-pyrimidinyl}-5-methyl-1,4-diazepan-1-yl]-6-amino-3-pyridaziny1} phenol]
18 | – | – | 500 to 5000 | + (+=<30%) | NCC#Cc1nccc(N2CCCC3(CCN(c4cc(-c5ccccc5O)nnc4N)CC3)C2)n1 [Compound P-87, 2-(6-amino-5-(2-(2-(3-aminoprop-1-yn-1-yl)pyrimidin-4-yl)-2,9-diazaspiro[5.5]undecan-9-yl)pyridazin-3-yl)phenol]
19 | – | – | > 5000 | + (+=<30%) | NCC#Cc1nccc(N2CCC3C2CCCN3c2cc(-c3ccccc3O)nnc2N)n1 (centres unmarked) [Compound P-88, 2-(6-amino-5-(1-(2-(3-aminoprop-1-yn-1-yl)pyrimidin-4-yl)octahydro-4H-pyrrolo[3,2-b]pyridin-4-yl)pyridazin-3-yl)phenol]

Row | Compound | DC50 [1] [nM] | inhibition at 1 µM [1] [%] | DC50 [2] [nM] | SMARCA2 % Degradation @ 1 μM [2]
20 | CN(C)CC#Cc1ncc(F)c(N2C3CCC2CN(c2cc(-c4ccccc4O)nnc2N)C3)n1 [Compound P-225, o-[6-amino-5-(8-{2-[3-(dimethylamino)-1-propynyl]-5-fluoro-4-pyrimidinyl}-3,8-diazabicyclo[3.2.1]oct-3-yl)-3-pyridazinyl]phenol] | < 50 | 30 to 70 | < 50 | ++ (++=30-70%)
21 | Nc1nnc(-c2ccccc2O)cc1N1CC2CCC(C1)N2c1ccnc(C#CCN2CCCCC2)n1 [Compound P-288, 0-(6-amino-5-{8-[2-(3-piperidino-1-propynyl)-4-pyrimidinyl]-3,8-diazabicyclo[3.2.1]oct-3-y1}-3-pyridazinyl)phenol] | 50 to 500 | 30 to 70 | 50 to 500 | ++ (++=30-70%)
